Assay results: patent publication US20130324556A1, “Protease Activated Receptor 2 (PAR2) Antagonists” (priority 2011, published 2013)
Where a name gives a salt, the structure may show the parent alone. Read-outs that look alike come from different tables or passages of the source.

Biological target: T1, human PAR2 receptor (Homo sapiens, UniProt P55085)
T1 construct: expressed in transfected cells; host or cells: 1321N1 cells
T1 sequence (P55085 26-397): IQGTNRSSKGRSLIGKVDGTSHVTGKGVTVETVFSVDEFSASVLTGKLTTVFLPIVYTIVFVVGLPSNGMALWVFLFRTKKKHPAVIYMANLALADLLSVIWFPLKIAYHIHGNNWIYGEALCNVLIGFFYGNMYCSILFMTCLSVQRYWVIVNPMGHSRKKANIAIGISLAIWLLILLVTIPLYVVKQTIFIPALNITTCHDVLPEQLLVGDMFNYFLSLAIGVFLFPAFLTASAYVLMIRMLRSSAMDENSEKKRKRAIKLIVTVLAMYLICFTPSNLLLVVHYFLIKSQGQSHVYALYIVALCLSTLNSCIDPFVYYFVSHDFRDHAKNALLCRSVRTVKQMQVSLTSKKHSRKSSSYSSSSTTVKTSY
Assay: PAR2 antagonist activity, calcium flux FLIPR assay (trypsin challenge)
Type: cell-based
Procedure: The PAR2 receptor couples through the Gq signaling pathway and results in activation of calcium mobilization. The functional activity of test compounds was routinely tested by measuring the ability of compounds to antagonize PAR2 (trypsin challenge) activity in a dose dependent manner, in 1321N1 cells transfected with the human PAR2 receptor, using a calcium flux Fluorescent Imaging Plate Reader FLIPR assay.
Briefly, test compounds were dissolved in DMSO to a concentration of 20 mM and stored in matrix screenmate racks. […] The compounds were then transferred to 384-well assay plates ready for use. […] The assay buffer used was HBSS buffer supplemented with 20 mM HEPES and 0.1% BSA (protease free), pH7.4. The loading/wash buffers were the same as the assay buffer.
Sub-cultivations were performed every 2-3 d. […] After washing, the cells were loaded with Fluo-4 AM dye (Molecular probes) at 2 μM containing 0.48 μg/mL pluronic acid for 60 min at 37° C. under 5% CO2.
A combined agonist/antagonist protocol was used to measure changes in intracellular calcium concentration. Compound (antagonist) was added to the cell plate using a Fluorometric Imaging Plate Reader (FLIPR) (Molecular Devices, Sunnyvale, Calif., USA). Basal fluorescence was recorded every second for 10 seconds prior to compound addition (10 μl) and fluorescence recorded every second for 1 min then every 6 seconds for a further 1 min. Trypsin (EC50 concentration) was then added using the FLIPR and fluorescence recorded as described above. Curve-fitting and parameter estimation were carried out using GraphPad Prism 4.0 (GraphPad Software Inc., San Diego, Calif.).

[1] = 1321N1 cells transfected with the human PAR2 receptor, trypsin (EC50 concentration) challenge, calcium flux FLIPR, read-out: PAR2 IC50

Q: How did the IC50 [1] turn out when `NCc1ccc(CNC(=O)N2CCC(Oc3ccc(Cl)cc3)CC2)cc1` [Example 15, N-{[4-(Aminomethyl)phen-yl]methyl}-4-(4-chlorophenoxy)piperidine-1-carboxamide hydrochloride] was run?
A: Its IC50 is 20 to 50 µM.

Q: `NCc1ccc(CNC(=O)C2CCN(Cc3cccc(F)c3)CC2)cc1` [Example 23, N-{[4-(Aminomethyl)phen-yl]methyl}-1-[(3-fluorophenyl)methyl]piper-idine-4-carboxamide] was tested. Which IC50 [1] did it give?
A: Its IC50 is 5 to 20 µM.

Q: Which IC50 [1] does the source give for `NCCCCCNC(=O)N1CCC(Cc2ccccc2)CC1` [Example 68, N-(5-Aminopentyl)-4-benzylpiperidine-1-carboxamide] here?
A: The IC50 was 20 to 50 µM.

Q: Which IC50 [1] does the source give for `NCc1ccc(CNC(=O)N2CCC(C(O)c3ccc(F)cc3)CC2)cc1` (centres unmarked) [Example 19, N-{[4-(Aminomethyl)phen-yl]methyl}-4-[(4-fluorophenyl)(hydroxy)meth-yl] piperidine-1-carboxamide] here?
A: The IC50 was 5 to 20 µM.

Q: `NCc1ccc(CNC(=O)N2CCN(c3ccccc3)CC2)cc1` [Example 27, N-{[4-(Aminomethyl)phen-yl]methyl}-4-phenyl piperazine-1-carboxamide dihydrochloride] was tested. Which IC50 [1] did it give?
A: Its IC50 is 20 to 50 µM.

Q: How did the IC50 [1] turn out when `O=C(NCc1ccc2nc[nH]c2c1)N1CCC(Oc2ccc(F)cc2)CC1` [Example 55, N-(1H-1,3-Benzodiazol-6-ylmethyl)-4-(4-fluorophenoxy)piperidine-1-carboxamide] was run?
A: The IC50 was 20 to 50 µM.

Q: Which IC50 [1] does the source give for `O=C(NCc1ccc2c(c1)CNC2)N1CCC(Oc2ccc(F)cc2)CC1` [Example 66, N-(2,3-Dihydro-1H-isoindol-5-ylmethyl)-4-(4-fluorophenoxy) piperidine-1-carboxamide hydrochloride] here?
A: The IC50 was 20 to 50 µM.

Q: How did the IC50 [1] turn out when `NCc1ccc(CNC(=O)N2CCC(Cc3cccnc3)CC2)cc1` [Example 9, N-{[4-(Aminomethyl)phen-yl]methyl}-4-(pyridin-3-ylmethyl)piperidine-1-carboxamide] was run?
A: Its IC50 is 20 to 50 µM.

Q: `N=C(N)c1ccc(CNC(=O)N2CCC(Cc3ccccc3)CC2)cc1F` [Example 45, 4-Benzyl-N-[(4-carbamimidoyl-3-fluorophenyl)meth-yl]piperidine-1-carboxamide hydrochloride] was tested. Which IC50 [1] did it give?
A: Its IC50 is less than 5 µM.

Q: How did the IC50 [1] turn out when `N=C(N)c1ccc(CNC(=O)N2CCC(Cc3ccccc3)CC2)cc1` [Example 36, 4-Benzyl-N-[(4-carbamimidoylphenyl)methyl]piperidine-1-carboxamide] was run?
A: Its IC50 is less than 5 µM.

Q: With `NCc1ccc(CNC(=O)N2CCC(C(=O)N3CCCCC3)CC2)cc1` [Example 31, N-{[4-(Aminomethyl)phen-yl]methyl}-4-[(piperidin-1-yl)carbon-yl]piperidine-1-carboxamide hydrochloride] as the compound, how does the IC50 [1] read?
A: Its IC50 is 50 to 100 µM.

Q: Which IC50 [1] does the source give for `COc1ccc(CC2CCN(C(=O)NCc3ccc(CN)cc3)CC2)cc1` [Example 3, 2,2,2-Trifluoroacetic acid; N-{[4-(aminomethyl)phenyl]methyl}-4-[(4-methoxyphenyl)methyl] piperidine-1-carboxamide] here?
A: The IC50 was less than 5 µM.

Q: For `NCc1ccc(CNC(=O)N2CCC(Oc3ccccc3Cl)CC2)cc1` [Example 13, N-{[4-(Aminomethyl)phen-yl]methyl}-4-(2-chlorophenoxy)piperidine-1-carboxamide hydrochloride], which IC50 [1] is on record?
A: Its IC50 is 20 to 50 µM.

Q: Which IC50 [1] does the source give for `CNC(=N)c1ccc(CNC(=O)N2CCC(Cc3ccccc3)CC2)cc1` [Example 37, 2,2,2-Trifluoroacetic acid; 4-benzyl-N-{[4-(N-methylcarbamimidoyl)phen-yl]methyl} piperidine-1-carboxamide] here?
A: The IC50 was 20 to 50 µM.

Q: With `NCc1ccc(CNC(=O)N2CCC(Cc3ccncc3)CC2)cc1` [Example 10, N-{[4-(Aminomethyl)phen-yl]methyl}-4-(pyridin-4-ylmethyl)piperidine-1-carboxamide] as the compound, how does the IC50 [1] read?
A: The IC50 was 5 to 20 µM.

Q: How did the IC50 [1] turn out when `Nc1nc2ccc(CNC(=O)N3CCC(Cc4ccccc4)CC3)cc2[nH]1` [Example 62, N-[(2-Amino-1H-1,3-benzodiazol-6-yl)methyl]-4-benzylpiperidine-1-carboxamide] was run?
A: Its IC50 is 5 to 20 µM.

Q: Which IC50 [1] does the source give for `Cn1cnc2ccc(CNC(=O)N3CCC(Cc4ccccc4)CC3)cc21` [Example 54, 4-Benzyl-N-[(1-methyl-1H-1,3-benzodiazol-6-yl)methyl]piperidine-1-carboxamide] here?
A: The IC50 was 50 to 100 µM.

Q: For `COc1cccc(CC2CCN(C(=O)NCc3ccc(CN)cc3)CC2)c1` [Example 2, 2,2,2-Trifluoroacetic acid; N-{[4-(aminomethyl)phenyl]methyl}-4-[(3-methoxyphenyl)methyl] piperidine-1-carboxamide], which IC50 [1] is on record?
A: The IC50 was 20 to 50 µM.

Q: Which IC50 [1] does the source give for `N=C(N)c1ccc(CNC(=O)N2CCC(Cc3ccccc3)CC2)cn1` [Example 50, 4-Benzyl-N-[(6-carbam-imidoylpyridin-3-yl)methyl]piperidine-1-carboxamide hydrochloride] here?
A: The IC50 was less than 5 µM.

Q: `COc1ccc(CC2CCN(C(=O)NCc3ccc4nc[nH]c4c3)CC2)cc1` [Example 56, N-(1H-1,3-Benzodiazol-6-ylmethyl)-4-[(4-methoxyphenyl)methyl] piperidine-1-carboxamide] was tested. Which IC50 [1] did it give?
A: The IC50 was 20 to 50 µM.

Q: With `NCc1ccc(CNC(=O)N2CCC(Cc3ccccc3)CC2)cc1` [Example 1, (4-{[(4-Benzylpiperidin-1-yl)carbonylamino]methyl}phenyl)methanaminium chloride] as the compound, how does the IC50 [1] read?
A: Its IC50 is 5 to 20 µM.

Q: `NCc1ccc(CNC(=O)N2CCN(Cc3ccccc3Cl)CC2)cc1` [Example 25, N-{[4-(Aminomethyl)phen-yl]methyl]-4-[(2-chlorophenyl)meth-yl]piperazine-1-carboxamide di-hydrochloride] was tested. Which IC50 [1] did it give?
A: The IC50 was 5 to 20 µM.

Q: With `CN(C)C(=N)c1ccc(CNC(=O)N2CCC(Cc3ccccc3)CC2)cc1` [Example 38, 2,2,2-Trifluoroacetic acid; 4-benzyl-N-{[4-(N,N-dimethylcar-bamimidoyl)phen-yl]methyl} piperidine-1-carboxamide] as the compound, how does the IC50 [1] read?
A: The IC50 was 5 to 20 µM.

Q: Which IC50 [1] does the source give for `NCc1ccc(CNC(=O)N2CCC(CCc3ccccc3)CC2)cc1` [Example 22, N-{[4-(Aminomethyl)phen-yl]methyl}-4-(2-phenylethyl)piperidine-1-carboxamide] here?
A: The IC50 was 20 to 50 µM.

Q: With `NCc1ccc(CNC(=O)N2CCC(n3c(=O)[nH]c4ccccc43)CC2)cc1` [Example 33, N-{[4-(Aminomethyl)phen-yl]methyl}-4-(2-oxo-2,3-dihydro-1H-1,3-benzodiazol-1-yl)piperidine-1-carboxa-mide hydrochloride] as the compound, how does the IC50 [1] read?
A: Its IC50 is 20 to 50 µM.

Q: For `NCc1ccc(CNC(=O)N2CCC(Cc3ccc(F)cc3)CC2)cc1` [Example 5, N-{[4-(Aminomethyl)phen-yl]methyl}-4-[(4-fluorophenyl)methyl]piper-idine-1-carboxamide hydrochloride], which IC50 [1] is on record?
A: The IC50 was less than 5 µM.

Q: Which IC50 [1] does the source give for `N=C(N)Nc1ccc(CNC(=O)N2CCC(Cc3ccccc3)CC2)cc1` [Example 63, 2,2,2-Trifluoroacetic acid; 4-benzyl-N-[(4-carbamimidamidophenyl)methyl]piperidine-1-carboxamide] here?
A: Its IC50 is 5 to 20 µM.

Q: `NCc1ccc(CNC(=O)N2CCN(C(=O)c3ccccc3)CC2)cc1` [Example 26, 2,2,2-Trifluoroacetic acid; N-{[4-(aminomethyl)phenyl]methyl}-4-benzoylpiperazine-1-carboxamide] was tested. Which IC50 [1] did it give?
A: The IC50 was 20 to 50 µM.

Q: With `O=C(NCc1cc2cnccc2[nH]1)N1CCC(Cc2ccccc2)CC1` [Example 53, 4-Benzyl-N-{1H-pyrrolo[3,2-c]pyridin-2-ylmethyl}piperidine-1-carboxamide] as the compound, how does the IC50 [1] read?
A: Its IC50 is 20 to 50 µM.

Q: With `NCc1ccc(CNC(=O)N2CCC(Cc3cccc(F)c3)CC2)cc1` [Example 4, 2,2,2-Trifluoroacetic acid; N-{[4-(aminomethyl)phenyl]methyl}-4-[(3-fluorophenyl)methyl] piperidine-1-carboxamide] as the compound, how does the IC50 [1] read?
A: The IC50 was less than 5 µM.

Q: Which IC50 [1] does the source give for `N=C(N)c1ccc(CNC(=O)N2CCN(Cc3ccccc3)CC2)cc1` [Example 42, 4-Benzyl-N-[(4-carbamimidoylphenyl)meth-yl]piperazine-1-carboxamide dihydrochloride] here?
A: The IC50 was less than 5 µM.

Q: `NCc1ccc(CNC(=O)N2CCC(c3ccccc3)C2)cc1` (centres unmarked) [Example 29, 2,2,2-Trifluoroacetic acid; N-{[4-(aminomethyl)phenyl]methyl}-3-phenylpyrrolidine-1-carboxamide] was tested. Which IC50 [1] did it give?
A: Its IC50 is 50 to 100 µM.

Q: `O=C(NCc1ccc2nc[nH]c2c1)N1CCC(Nc2ccc(F)cc2)CC1` [Example 58, N-(1H-1,3-Benzodiazol-6-ylmethyl)-4-[(4-fluorophenyl)amino]piperidine-1-carboxamide] was tested. Which IC50 did it give?
A: Its IC50 is 20 to 50 µM.

Q: For `O=C(NCc1ccc2c(c1)CNC2)N1CCC(Cc2ccccc2)CC1` [Example 64, 4-Benzyl-N-(2,3-dihydro-1H-isoindol-5-ylmeth-yl)piperidine-1-carboxamide], which IC50 [1] is on record?
A: Its IC50 is 5 to 20 µM.

Q: For `NCc1ccc(CNC(=O)N2CCC(c3nc4ccccc4o3)CC2)cc1` [Example 34, N-{[4-(Aminomethyl)phen-yl]methyl}-4-(1,3-benzoxazol-2-yl)pipe-ridine-1-carboxamide], which IC50 [1] is on record?
A: The IC50 was less than 5 µM.
